Source: patent US6294672A, “Indole and azaindole inhibitors of Fructose-1,6-biphosphatase” (Metabasis Therapeutics, Inc., priority 2000, dated 2001)
Read-outs that look alike come from different tables or passages of the source.

Experiments:
[1] = test system: glucose production from lactate/pyruvate in isolated rat hepatocytes; assay: Inhibition of Gluconeogenesis in Rat Hepatocytes; assay type: cell-based
Description: Hepatocytes were prepared from overnight fasted Sprague-Dawley rats (250-300 g) according to the procedure of Berry and Friend (Berry, M. N., Friend, D. S., J. Cell. Biol. 1969, 43, 506-520) as modified by Groen (Groen, A. K., Sips, H. J., Vervoorn, R. C., Tager, J. M., Eur. J. Biochem. 1982, 122, 87-93). Hepatocytes (75 mg wet weight/mL) were incubated in 1 mL Krebs-bicarbonate buffer containing 10 mM Lactate, 1 mM pyruvate, 1 mg/mL BSA, and test compound concentrations from 1 to 500 μM. Incubations were carried out in a 95% oxygen, 5% carbon dioxide atmosphere in closed, 50-mL Falcon tubes submerged in a rapidly shaking water bath (37° C.). After 1 hour, an aliquot (0.25 mL) was removed, transferred to an Eppendorf tube and centrifuged. 50 μL of supernatant was then assayed for glucose content using a Sigma Glucose Oxidase kit as per the manufacturer's instructions.

[2] = target: T1, human liver FBPase (hlFBPase) (Homo sapiens, UniProt P09467); assay: Inhibition of Human Liver FBPase; assay type: biochemical
T1 construct: made in house; host or cells: E. coli BL21 (transformed strain from Dr. M. R. El-Maghrabi, SUNY Stony Brook)
T1 sequence (P09467 2-338 limits assumed): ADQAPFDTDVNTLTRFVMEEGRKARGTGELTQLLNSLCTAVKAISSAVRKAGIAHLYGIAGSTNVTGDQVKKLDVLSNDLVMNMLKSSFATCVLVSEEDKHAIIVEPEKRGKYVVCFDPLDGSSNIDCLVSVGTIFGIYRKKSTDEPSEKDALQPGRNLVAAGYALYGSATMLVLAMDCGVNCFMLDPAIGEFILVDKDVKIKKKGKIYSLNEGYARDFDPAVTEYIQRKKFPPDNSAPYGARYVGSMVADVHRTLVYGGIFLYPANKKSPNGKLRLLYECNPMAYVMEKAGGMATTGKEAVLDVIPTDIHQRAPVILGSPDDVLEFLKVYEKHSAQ
Description: (§1) Enzymatic activity was measured spectrophotometrically in reactions that coupled the formation of product (fructose 6-phosphate) to the reduction of dimethylthiazoldiphenyltetrazolium bromide (MTT) via NADP and phenazine methosulfate (PMS), using phosphoglucose isomerase and glucose 6-phosphate dehydrogenase as the coupling enzymes. Reaction mixtures (200 μL) were made up in 96-well microtitre plates, and consisted of 50 mM Tris-HCl, pH 7.4, 100 mM KCl, 5 mM EGTA, 2 mM MgCl2, 0.2 mM NADP, 1 mg/mL BSA, 1 mM MTT, 0.6 mM PMS, 1 unit/mL phosphoglucose isomerase, 2 units/mL glucose 6-phosphate dehydrogenase, and 0.150 mM substrate (fructose 1,6-bisphosphate). Inhibitor concentrations were varied from 0.01 μM to 10 μM. Reactions were started by the addition of 0.002 units of pure hlFBPase and were monitored for 7 minutes at 590 nm in a Molecular Devices Plate Reader (37° C.).

Mouse liver FBPase = target: T2, Mouse liver FBPase (Mus musculus, UniProt Q9QXD6); assay: In vitro Inhibition of Mouse Liver FBPase; assay type: biochemical; conditions: partially purified mouse liver fraction, assayed as for human liver FBPase
T2 construct: Mouse liver FBPase is obtained by homogenizing freshly isolated mouse liver; from tissue; host or cells: freshly isolated mouse liver; 45-75% ammonium sulfate fraction, desalted
T2 sequence (Q9QXD6 2-338 limits assumed): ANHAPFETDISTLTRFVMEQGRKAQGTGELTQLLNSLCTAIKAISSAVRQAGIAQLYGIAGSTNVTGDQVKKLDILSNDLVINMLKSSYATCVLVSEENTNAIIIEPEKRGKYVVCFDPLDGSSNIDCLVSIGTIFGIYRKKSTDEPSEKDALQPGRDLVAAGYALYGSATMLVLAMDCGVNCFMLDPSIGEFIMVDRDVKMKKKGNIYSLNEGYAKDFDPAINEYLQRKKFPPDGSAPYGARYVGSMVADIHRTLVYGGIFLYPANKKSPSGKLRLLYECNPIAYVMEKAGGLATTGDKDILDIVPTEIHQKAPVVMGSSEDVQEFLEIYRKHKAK
Description: as §1, with “E. coli strain BL21 transformed with a human liver FBPase-encoding plasmid was obtained from Dr. M. R. El-Maghrabi at the State University of New York at Stony Brook. hIFBPase was typically purified from 10 liters of E. coli culture as described (M. Gidh-Jain et al., The Journal of Biological Chemistry 1994, 269, 27732-27738). Enzymatic” for “Enzymatic”
(§2) E. coli strain BL21 transformed with a rat liver FBPase-encoding plasmid is obtained from Dr. M. R. El-Maghrabi at the State University of New York at Stony Brook, and purified as described (El-Maghrabi, M. R., and Pilkis, S. J. Biochem. Biophys. Res. Commun. 1991, 176, 137-144). Mouse liver FBPase is obtained by homogenizing freshly isolated mouse liver in 100 mM Tris-HCl buffer, pH 7.4, containing 1 mM EGTA, and 10% glycerol. The homogenate is clarified by centrifugation, and the 45-75% ammonium sulfate fraction prepared. This fraction is redissolved in the homogenization buffer and desalted on a PD-10 gel filtration column (Biorad) eluted with same. This partially purified fraction is used for enzyme assays. Both rat liver and mouse liver FBPase are assayed as described for human liver FBPase. Generally, as reflected by the higher IC50 values, the rat and mouse liver enzymes are less sensitive to inhibition by the compounds tested than the human liver enzyme.

rat liver FBPase = target: T3, rat liver FBPase (Rattus norvegicus, UniProt P19112); assay: In vitro Inhibition of Rat Liver FBPase; assay type: biochemical; conditions: assayed as for human liver FBPase
T3 construct: made in house; host or cells: E. coli BL21 (transformed strain from Dr. M. R. El-Maghrabi, SUNY Stony Brook)
T3 sequence (P19112 2-363 limits assumed): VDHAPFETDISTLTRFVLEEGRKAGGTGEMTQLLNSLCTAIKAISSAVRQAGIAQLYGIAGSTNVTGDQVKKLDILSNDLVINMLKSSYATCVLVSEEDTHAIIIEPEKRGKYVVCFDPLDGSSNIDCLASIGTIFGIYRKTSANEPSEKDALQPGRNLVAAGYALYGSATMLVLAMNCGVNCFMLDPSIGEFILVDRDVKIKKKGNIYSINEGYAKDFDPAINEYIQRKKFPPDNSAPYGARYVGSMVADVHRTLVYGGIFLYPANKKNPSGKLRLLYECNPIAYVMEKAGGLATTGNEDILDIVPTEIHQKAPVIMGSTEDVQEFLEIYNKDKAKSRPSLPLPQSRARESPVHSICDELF
Description: as §1, with “E. coli strain BL21 transformed with a human liver FBPase-encoding plasmid was obtained from Dr. M. R. El-Maghrabi at the State University of New York at Stony Brook. hIFBPase was typically purified from 10 liters of E. coli culture as described (M. Gidh-Jain et al., The Journal of Biological Chemistry 1994, 269, 27732-27738). Enzymatic” for “Enzymatic”
as §2

[3] = Rattus norvegicus, Hepatocyte, 1 hour
[4] = 0.150 mM fructose 1,6-bisphosphate, pH 7.4, 37° C., read-out: HL FBPase IC50

Structure (SMILES)	IC50 [2, 4]	IC50 (Mouse liver FBPase)	IC50 (rat liver FBPase)	inhibition at 500 µM [1, 3]	other results
Nc1cccc2c(CCc3ccccc3)c(C(=O)NCP(=O)(O)O)[nH]c12 [Compound 3.1, 7-amino-3-(2-phenethyl)-2-(phosphonomethylaminocarbonyl)indole]	–	–	–	41.5%	–
Nc1ncnc2c1ncn2[C@@H]1O[C@H](COP(=O)(O)O)[C@@H](O)[C@H]1O [adenosine monophosphate (AMP), adenosine monophosphate, reference compound]	–	–	–	–	IC50 ([2]; under the reaction conditions of Example A, read-out: concentration required to inhibit half of the hlFBPase activity): 1 µM
Cc1cccn2c(CC(C)C)c(-c3ccc(P(=O)(O)O)o3)nc12 [Compound 14.4, 9-Aza-3-isobutyl-7-methyl-2-(2-(5-phosphono)furanyl)indole]	1.6 µM	> 30 µM	> 25 µM	–	–
Nc1cccn2c(-c3ccccc3)c(COCP(=O)(O)O)nc12 [Compound 11.5, 7-amino-9aza-3-phenyl-2-phosphonomethoxymethyl-indole]	10 µM	–	90 µM	–	inhibition at 250 µM ([1]; Rattus norvegicus, Hepatocyte, 250 μM, 1 hour): 50%
COc1ccc2[nH]c(C(=O)NCP(=O)(O)O)cc2c1 [Compound 1.3, Disodium 5-methoxy-2-(phosphonomethylaminocarbonyl)indole]	60.6 µM	–	–	3.4%	–
O=P(O)(O)COCc1nc2ccccn2c1-c1ccccc1 [Compound 11.3, 9-aza-3-phenyl-2-phosphono-methoxymethylindole]	10 µM	–	–	–	–
CC(C)Cn1c(-c2ccc(P(=O)(O)O)o2)cc2c(N)cccc21 [Compound 9.1, N^1-isobutyl-4-amino-2-(2-(5-phosphone)furanyl)indole]	32.5 µM	–	–	57%	dose dependent inhibition of glucose production in rat hepatocytes (FIG. 3) [1]: inhibit glucose production in a dose dependent manner
Nc1cccc2c(-c3ccccc3)c(C(=O)NCP(=O)(O)O)[nH]c12 [Compound 2.1, 7-amino-3-phenyl-2-(phosphonomethylaminocarbonyl)indole]	–	–	–	–	dose-dependent inhibition of hlFBPase (FIG. 2) [2]: dose-dependent inhibition
CC(C)Cn1c(-c2ccc(P(=O)(O)O)o2)cc2ccccc21 [Compound 6.1, 1-isobutyl-2-(2-(5-phosphono)furanyl)indole]	10.7 µM	> 20 µM	> 20 µM	64.4%	dose dependent inhibition of glucose production in rat hepatocytes (FIG. 3) [1]: inhibit glucose production in a dose dependent manner
O=C(NCP(=O)(O)O)c1cn2ccccc2n1 [Compound 12.1, 9-aza-2-phosphonomethylaminocarbonylindole]	90 µM	–	–	–	–

More lines, main results first:

IC50 [2, 4]	IC50 (Mouse liver FBPase)	IC50 (rat liver FBPase)	Structure (SMILES)	inhibition at 500 µM [1, 3]	other results
8.67 µM	> 20 µM	> 20 µM	O=P(O)(O)c1ccc(-c2[nH]c3ccccc3c2Br)o1 [Compound 7.1, 2-(2-(5-phosphono)furanyl)-3-bromoindole]	45.4%	–
8.5 µM	> 20 µM	> 20 µM	O=P(O)(O)c1ccc(-c2[nH]c3ccccc3c2-c2ccccc2)o1 [Compound 7.2, 3-phenyl-2-(2-(5-phosphono)furanyl)indole]	–	–
10 µM	–	–	Nc1cccc2cc(C(=O)NCP(=O)(O)O)[nH]c12 [Compound 1.1, 7-Amino-2-(phosphonomethylaminocarbonyl)indole]	–	dose-dependent inhibition of hlFBPase (FIG. 2) [2]: dose-dependent inhibition
2.5 µM	–	–	CC(C)Cc1c(-c2ccc(P(=O)(O)O)o2)[nH]c2ccc(Cl)cc12 [Compound 10.1, 5-chloro-3-isobutyl-2-(2-(5-phosphono)furanyl)indole]	–	–
4.5 µM	–	–	O=P(O)(O)c1ccc(-c2cn3cc(Cl)ccc3n2)o1 [Compound 14.2, 9-Aza-5-chloro-2-(2-(5-phosphono)furanyl)indole]	–	–
8.8 µM	> 20 µM	> 20 µM	O=P(O)(O)c1ccc(-c2cc3ccccc3[nH]2)o1 [Compound 5.1, 2-(2-(5-phosphono)furanyl)indole]	39.6%	–
